pIC50: −log10 of the molar value.
How the values were obtained:
[1] = biological target: T1, OX2 (Homo sapiens, UniProt O43614); experiment: Orexin receptor cell-based functional assay, [Ca2+]i by FLIPR, CHO-OX2 cells; settings: [Ca2+]i by FLIPR, antagonist dose-range 0.1 nM-10 μM, EC90 of OXA, read-out: OX2
T1 construct: expressed in transfected cells; host or cells: CHO (CHO-OX2, kept under selection antibiotic)
T1 sequence (O43614 1-444): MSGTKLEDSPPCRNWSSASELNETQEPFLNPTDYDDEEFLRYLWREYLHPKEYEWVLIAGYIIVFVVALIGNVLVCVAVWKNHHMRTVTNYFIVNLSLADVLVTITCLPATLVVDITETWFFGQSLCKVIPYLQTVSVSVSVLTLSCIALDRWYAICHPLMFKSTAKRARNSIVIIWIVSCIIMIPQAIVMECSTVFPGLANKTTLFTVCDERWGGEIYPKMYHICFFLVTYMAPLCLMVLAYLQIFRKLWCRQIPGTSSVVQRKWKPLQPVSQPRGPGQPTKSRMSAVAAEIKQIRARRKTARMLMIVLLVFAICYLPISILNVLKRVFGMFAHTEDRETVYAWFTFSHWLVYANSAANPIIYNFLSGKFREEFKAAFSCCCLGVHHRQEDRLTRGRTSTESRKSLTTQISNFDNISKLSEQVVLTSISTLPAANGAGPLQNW
Description: Measurement of [Ca^2+]i using a FLIPR: CHO—OX1 or CHO—OX2 cells are seeded into black-walled clear-base 384-well plates (Costar) at a density of 20,000 cells per well in F12-K medium supplemented with 10% FBS and selection antibiotic (500 ug/ml G418 or 15 ug/ml Blasticidin) and cultured overnight. The cells are incubated with equal volume of calcium4 loading buffer (Molecular Devices, Inc.) containing 2.5 mM probenecid at 37° C. for 30 min, followed by putative OX1 or OX2 receptor antagonists (dose-range 0.1 nM-10 μM) for another 30 min.
The cells are incubated with equal volume of calcium6 loading buffer (Molecular Devices, Inc.) containing 2.5 mM probenecid at 37° C. for 2 h, followed by test compounds (dose-range 0.1 nM-10 μM) for another 30 min.

[2] = biological target: T2, OX1 (Homo sapiens, UniProt O43613); experiment: Orexin receptor cell-based functional assay, [Ca2+]i by FLIPR, CHO-OX1 cells; settings: CHO-OX1 cells, [Ca2+]i by FLIPR, antagonist dose-range 0.1 nM-10 μM, EC90 of OXA; read-out: OX1
T2 construct: expressed in transfected cells; host or cells: CHO (CHO-OX1, kept under selection antibiotic)
T2 sequence (O43613 1-425): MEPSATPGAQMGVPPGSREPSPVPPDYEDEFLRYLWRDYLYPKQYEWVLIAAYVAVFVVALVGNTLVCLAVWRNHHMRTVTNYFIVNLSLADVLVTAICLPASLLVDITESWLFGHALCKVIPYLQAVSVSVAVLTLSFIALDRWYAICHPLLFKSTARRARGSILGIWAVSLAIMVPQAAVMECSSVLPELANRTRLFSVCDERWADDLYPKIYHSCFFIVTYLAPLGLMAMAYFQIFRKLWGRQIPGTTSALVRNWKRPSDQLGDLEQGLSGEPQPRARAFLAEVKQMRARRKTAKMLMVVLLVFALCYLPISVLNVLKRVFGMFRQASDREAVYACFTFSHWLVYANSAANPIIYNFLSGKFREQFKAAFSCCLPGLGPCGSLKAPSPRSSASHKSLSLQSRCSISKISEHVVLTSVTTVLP
Procedure, shortened: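 Antagonist mode FLIPR calcium read in CHO-OX1 and CHO-OX2 lines. Test compounds, dosed 0.1 nM-10 μM, preincubated 30 min after 37° C dye loading with 2.5 mM probenecid (calcium4 for 30 min or calcium6 for 2 h).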

[3] = biological target: T3, CYP3A4 (Homo sapiens, UniProt P08684); experiment: Cytochrome P450 inhibition assay (midazolam hydroxylation); format: in vitro ADME; settings: human, human liver microsomes, probe midazolam (hydroxylation to 1′-hydroxymidazolam), 10 μM test compound, midazolam at approximately its Km
T3 construct: pre-incubated with human liver microsomes and NADPH; from tissue; host or cells: human liver microsomes
Procedure, shortened: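 Percent inhibition of midazolam 1′-hydroxylation by 10 μM compound was measured, midazolam dosed at about Km. Time-dependent inhibition was probed by a 30 min preincubation of compound with human liver microsomes and NADPH ahead of substrate, compared against samples without preincubation.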

T3 sequence (P08684 whole entry): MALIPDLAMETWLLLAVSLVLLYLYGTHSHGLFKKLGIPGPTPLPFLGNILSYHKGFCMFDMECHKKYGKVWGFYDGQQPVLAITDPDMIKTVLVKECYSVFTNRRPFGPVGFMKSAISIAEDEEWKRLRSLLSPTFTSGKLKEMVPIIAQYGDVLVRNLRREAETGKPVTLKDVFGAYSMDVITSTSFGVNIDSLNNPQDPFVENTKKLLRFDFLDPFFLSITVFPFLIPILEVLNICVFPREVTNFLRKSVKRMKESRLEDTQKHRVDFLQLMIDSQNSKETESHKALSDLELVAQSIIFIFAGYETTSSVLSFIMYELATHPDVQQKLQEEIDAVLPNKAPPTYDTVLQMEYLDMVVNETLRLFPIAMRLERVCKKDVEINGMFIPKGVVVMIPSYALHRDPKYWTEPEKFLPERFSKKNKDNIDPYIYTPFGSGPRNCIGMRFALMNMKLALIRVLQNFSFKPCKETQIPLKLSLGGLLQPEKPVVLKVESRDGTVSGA

SMILES | pIC50 [1] | pIC50 [2] | inhibition at 10 µM [3] [%]
Cc1ccc(-n2nccn2)c(C(=O)N2CCC[C@@H](C)[C@H]2COc2ccc(C(F)(F)F)cn2)c1 [Example A106] | 5.64 | 8.15 | 54
Cc1ccc(-n2nccn2)c(C(=O)N2CCC[C@@H](C)[C@H]2CNc2ncc(Cl)cc2F)n1 [Example A192, ((2S,3R)-2-(((5-Chloro-3-fluoropyridin-2-yl)amino)methyl)-3-methylpiperidin-1-yl)(6-methyl-3-(2H-1,2,3-triazol-2-yl)pyridin-2-yl)methanone] | < 5.30 | 8.00 | 51
C[C@@H]1CCCN(C(=O)c2ccc(F)c(F)c2-n2nccn2)[C@@H]1CNc1ccc(C(F)(F)F)cn1 [Example A324, (3,4-Difluoro-2-(2H-1,2,3-triazol-2-yl)phenyl)((2S,3R)-3-methyl-2-(((5-(trifluoromethyl)pyridin-2-yl)amino)methyl)piperidin-1-yl)methanone] | 6.31 | 9.00 | 87
C[C@@H]1CCCN(C(=O)c2ccc(F)c(F)c2-n2nccn2)[C@@H]1CNc1ncc(C(F)(F)F)cn1 [Example A325, (3,4-difluoro-2-(2H-1,2,3-triazol-2-yl)phenyl)((2S,3R)-3-methyl-2-(((5-(trifluoromethyl)pyrimidin-2-yl)amino)methyl)piperidin-1-yl)methanone] | 5.39 | 8.70 | 80
C[C@@H]1CCCN(C(=O)c2c(F)ccc(F)c2-n2nccn2)[C@@H]1CNc1ccc(C(F)(F)F)cn1 [Example A332, (3,6-Difluoro-2-(2H-1,2,3-triazol-2-yl)phenyl)((2S,3R)-3-methyl-2-(((5-(trifluoromethyl)pyridin-2-yl)amino)methyl)piperidin-1-yl)methanone] | < 5.30 | 8.70 | 62
C[C@@H]1CCCN(C(=O)c2c(F)ccc(F)c2-n2nccn2)[C@@H]1CNc1ncc(C(F)(F)F)cn1 [Example A333, (3,6-difluoro-2-(2H-1,2,3-triazol-2-yl)phenyl)((2S,3R)-3-methyl-2-(((5-(trifluoromethyl)pyrimidin-2-yl)amino)methyl)piperidin-1-yl)methanone] | < 5.30 | 7.82 | 38
C[C@@H]1CCCN(C(=O)c2c(F)ccc(F)c2-c2ncccn2)[C@@H]1CNc1ccc(C(F)(F)F)cn1 [Example A334, (3,6-difluoro-2-(pyrimidin-2-yl)phenyl)((2S,3R)-3-methyl-2-(((5-(trifluoromethyl)pyridin-2-yl)amino)methyl)piperidin-1-yl)methanone] | 6.30 | 8.70 | 54
C[C@@H]1CCCN(C(=O)c2c(F)ccc(F)c2-c2ncccn2)[C@@H]1CNc1ncc(C(F)(F)F)cn1 [Example A335, (3,6-difluoro-2-(pyrimidin-2-yl)phenyl)((2S,3R)-3-methyl-2-(((5-(trifluoromethyl)pyrimidin-2-yl)amino)methyl)piperidin-1-yl)methanone] | < 5.30 | 8.40 | 44
Cc1cc(F)cc(C(=O)N2CCC[C@@H](C)[C@H]2CNc2ccc(C(F)(F)F)cn2)c1-c1ncccn1 [Example A342, (5-Fluoro-3-methyl-2-(pyrimidin-2-yl)phenyl)((2S,3R)-3-methyl-2-(((5-(trifluoromethyl)pyridin-2-yl)amino)methyl)piperidin-1-yl)methanone] | 6.42 | 9.00 | 83

More lines, now with the values ahead:

pIC50 [1] | pIC50 [2] | inhibition at 10 µM [3] [%] | SMILES
5.55 | 8.70 | 75 | Cc1c(F)ccc(C(=O)N2CCC[C@@H](C)[C@H]2CNc2ccc(C(F)(F)F)cn2)c1-n1nccn1 [Example A344, (4-Fluoro-3-methyl-2-(2H-1,2,3-triazol-2-yl)phenyl)((2S,3R)-3-methyl-2-(((5-(trifluoromethyl)pyridin-2-yl)amino)methyl)piperidin-1-yl)methanone]
< 5.30 | 9.00 | 60 | Cc1c(F)ccc(C(=O)N2CCC[C@@H](C)[C@H]2CNc2ncc(C(F)(F)F)cn2)c1-n1nccn1 [Example A345, (4-fluoro-3-methyl-2-(2H-1,2,3-triazol-2-yl)phenyl)((2S,3R)-3-methyl-2-(((5-(trifluoromethyl)pyrimidin-2-yl)amino)methyl)piperidin-1-yl)methanone]
5.38 |  | 62 | Cc1c(F)ccc(C(=O)N2CCC[C@@H](C)[C@H]2CNc2ccc(C(F)(F)F)cn2)c1-c1ncccn1 [Example A346, (4-fluoro-3-methyl-2-(pyrimidin-2-yl)phenyl)((2S,3R)-3-methyl-2-(((5-(trifluoromethyl)pyridin-2-yl)amino)methyl)piperidin-1-yl)methanone]
6.06 |  | 25 | Cc1ccc(F)c(C(=O)N2CCC[C@@H](C)[C@H]2CNc2ncc(C(F)(F)F)cn2)c1-c1ncccn1 [Example A355, (6-fluoro-3-methyl-2-(pyrimidin-2-yl)phenyl)((2S,3R)-3-methyl-2-(((5-(trifluoromethyl)pyrimidin-2-yl)amino)methyl)piperidin-1-yl)methanone]
< 5.30 | 8.40 |  | Cc1cc(-n2nccn2)c(C(=O)N2CCC[C@@H](C)[C@H]2CNc2ncc(C(F)(F)F)cn2)cc1F [Example A361, (5-fluoro-4-methyl-2-(2H-1,2,3-triazol-2-yl)phenyl)((2S,3R)-3-methyl-2-(((5-(trifluoromethyl)pyrimidin-2-yl)amino)methyl)piperidin-1-yl)methanone]
< 5.30 | 7.62 |  | Cc1c(F)ccc(-n2nccn2)c1C(=O)N1CCC[C@@H](C)[C@H]1CNc1ncc(C(F)(F)F)cn1 [Example A385, (3-fluoro-2-methyl-6-(2H-1,2,3-triazol-2-yl)phenyl)((2S,3R)-3-methyl-2-(((5-(trifluoromethyl)pyrimidin-2-yl)amino)methyl)piperidin-1-yl)methanone]
< 5.30 | 8.30 |  | Cc1c(F)ccc(-c2ncccn2)c1C(=O)N1CCC[C@@H](C)[C@H]1CNc1ccc(C(F)(F)F)cn1 [Example A386, (3-fluoro-2-methyl-6-(pyrimidin-2-yl)phenyl)((2S,3R)-3-methyl-2-(((5-(trifluoromethyl)pyridin-2-yl)amino)methyl)piperidin-1-yl)methanone]
< 5.30 | 7.52 |  | Cc1c(F)ccc(-c2ncccn2)c1C(=O)N1CCC[C@@H](C)[C@H]1CNc1ncc(C(F)(F)F)cn1 [Example A387, (3-fluoro-2-methyl-6-(pyrimidin-2-yl)phenyl)((2S,3R)-3-methyl-2-(((5-(trifluoromethyl)pyrimidin-2-yl)amino)methyl)piperidin-1-yl)methanone]
< 5.30 | 8.40 |  | C[C@@H]1CCCN(C(=O)c2c(-c3ncccn3)ccc(F)c2F)[C@@H]1CNc1ccc(C(F)(F)F)cn1 [Example A388, (2,3-Difluoro-6-(pyrimidin-2-yl)phenyl)((2S,3R)-3-methyl-2-(((5-(trifluoromethyl)pyridin-2-yl)amino)methyl)piperidin-1-yl)methanone]

— patent publication US9440982B2 (Eolas Therapeutics, Inc., priority 2012, dated 2016)
